{"source": "paper PMC5588548", "about": "“Suramin Inhibits Osteoarthritic Cartilage Degradation by Increasing Extracellular Levels of Chondroprotective Tissue Inhibitor of Metalloproteinases 3” (Molecular Pharmacology, 2017)", "key": {"[1]": {"parameters": "method as in Voogd et al., 1993", "conditions": "ref Voogd et al., 1993; cited from earlier work"}, "TIMP-2 mRNA": {"system": "TIMP-2 mRNA", "test": "TIMP-2 mRNA analysis in HTB94 cells (quantitative PCR)", "format": "cell-based", "conditions": "suramin 0–250 µg/ml, 18 hours", "experimental": "(§1) HTB94 chondrosarcoma cells or primary human chondrocytes (1 × 10^6 cells) were treated in triplicate with 0–250 µg/ml suramin in serum-free DMEM for 18–48 hours. Total RNA was isolated from cells using an RNeasy mini kit (Qiagen, Crawley, UK) and cDNA was synthesized (reverse transcriptase kit; Applied Biosystems, Foster City, CA). Levels of TIMP-1, TIMP-2, TIMP-3, LRP1, and RPLP0 internal reference mRNA were quantified by real-time polymerase […] chain reaction on a Corbett Rotor-Gene 6000 (Corbett Life Science, Mortlake, NSW, Australia) using TaqMan Fast Universal PCR Master Mix (Applied Biosystems) and TaqMan probes (Applied Biosystems) Hs01092512_g1 for TIMP-1, Hs00234278_m1 for TIMP-2, Hs00165949_m1 for TIMP-3, Hs00233856_m1 for LRP1, and Hs99999902_m1 for RPLP0. The ΔΔ threshold cycle values (mean ± S.D., n = 3 technical replicates) are shown relative to control untreated HTB94 cells (defined as 1)."}, "MMP-2": {"molecular_target": "T1, MMP-2 (Homo sapiens, UniProt P08253)", "T1 sequence (P08253 110-660)": "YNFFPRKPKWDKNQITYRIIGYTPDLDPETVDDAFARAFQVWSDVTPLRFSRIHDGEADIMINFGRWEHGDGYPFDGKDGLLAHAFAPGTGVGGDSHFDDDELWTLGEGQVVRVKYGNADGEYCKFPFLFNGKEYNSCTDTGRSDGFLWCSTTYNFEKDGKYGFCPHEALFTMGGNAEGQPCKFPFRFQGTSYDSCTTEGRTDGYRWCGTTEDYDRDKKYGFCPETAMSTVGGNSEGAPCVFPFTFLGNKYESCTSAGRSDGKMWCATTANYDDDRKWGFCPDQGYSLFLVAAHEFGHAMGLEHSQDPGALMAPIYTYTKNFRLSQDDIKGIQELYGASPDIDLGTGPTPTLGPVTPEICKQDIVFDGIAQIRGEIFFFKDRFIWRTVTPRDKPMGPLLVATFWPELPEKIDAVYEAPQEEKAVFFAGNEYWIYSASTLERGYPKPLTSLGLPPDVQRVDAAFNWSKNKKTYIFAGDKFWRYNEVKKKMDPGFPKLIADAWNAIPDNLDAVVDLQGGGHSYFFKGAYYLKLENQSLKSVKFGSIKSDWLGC", "test": "MMP-2 activity in vitro (data not shown)", "format": "biochemical"}, "TIMP-1 mRNA": {"system": "TIMP-1 mRNA", "test": "TIMP-1 mRNA analysis in HTB94 cells (quantitative PCR)", "format": "cell-based", "conditions": "suramin 0–250 µg/ml, 18 hours", "experimental": "as §1"}, "TIMP-3 binding to LRP1": {"molecular_target": "T2, TIMP-3 binding to LRP1 (Homo sapiens, UniProt P35625)", "T2 construct": "purchased BioMac, Leipzig, Germany", "T2 sequence (P35625 24-211)": "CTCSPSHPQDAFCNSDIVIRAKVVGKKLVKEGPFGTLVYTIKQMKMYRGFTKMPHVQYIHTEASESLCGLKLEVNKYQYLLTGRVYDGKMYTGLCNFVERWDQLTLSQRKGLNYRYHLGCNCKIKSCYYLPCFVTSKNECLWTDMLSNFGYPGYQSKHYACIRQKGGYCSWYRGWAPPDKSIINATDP", "test": "TIMP-3 binding to immobilized LRP1 (ELISA)", "conditions": "TIMP-3 preincubated with suramin 200 µg/ml, 1 hour, 37°C", "experimental": "LRP1 (5 nM; BioMac, Leipzig, Germany) was coated (overnight, 4°C) onto medium-binding ELISA plates (Greiner Bio-One, Stonehouse, UK) in 20 mM HEPES, 150 mM NaCl, 5 mM CaCl2, and 0.05% Tween 20, pH 7.4. Wells were blocked with 10% bovine serum albumin (BSA) in Tris HCl, NaCl, and CaCl2 (TNC) buffer (50 mM Tris HCl, pH 7.5, 150 mM NaCl, 10 mM CaCl2, and 0.05% Brij 35). Wells were washed in TNC buffer containing 0.1% Tween 20 after this and every subsequent step. FLAG-tagged human TIMP-3 (0.4–50 nM), either alone or preincubated with suramin (200 μg/ml, 1 hour, 37°C), was applied to wells in TNC buffer containing 5% BSA (3 hours, 25°C). Binding was detected with anti-FLAG M2 primary antibody and anti-mouse horseradish peroxidase–conjugated secondary antibody in the same buffer. 3,3′,5,5′-Tetramethylbenzidine (Becton Dickinson) substrate was added, the reaction was stopped when appropriate by adding 2 N H2SO4, and absorbance at 450 nm was measured using a FLUOstar Omega microplate reader. Data (mean ± S.D., n = 3) were analyzed using Prism 7.0b software."}, "TIMP-3 mRNA": {"system": "TIMP-3 mRNA", "test": "TIMP-3 mRNA analysis in HTB94 cells (quantitative PCR)", "format": "cell-based", "conditions": "suramin 0–250 µg/ml, 18 hours", "experimental": "as §1"}, "human OA chondrocytes": {"system": "human OA chondrocytes", "test": "Cell viability assay (MTS), human OA chondrocytes", "format": "cell-based", "conditions": "suramin 0–250 µg/ml, 48 hours", "experimental": "HTB94 chondrosarcoma cells or human OA chondrocytes (10^3 cells per well in 96-well plates) were plated overnight in DMEM with 10% FCS. Cells were washed in serum-free cartilage medium and treated for 48–72 hours with suramin (0–250 µg/ml) or sodium nitroprusside (10 mM) as a control to induce cell death. Cell viability was then assessed using the 3-(4,5-dimethylthiazol-2-yl)-5-(3-carboxymethoxyphenyl)-2-(4-sulfophenyl)-2H-tetrazolium CellTiter Cell Proliferation Assay (Promega) according to the manufacturer’s instructions (mean ± S.D., n = 3)."}, "[2]": {"system": "rat inflammatory arthritis model", "parameters": "method as in Sahu et al., 2012", "conditions": "ref Sahu et al., 2012; cited from earlier work"}}}
{"smiles": "Cc1ccc(C(=O)Nc2ccc(S(=O)(=O)O)c3cc(S(=O)(=O)O)cc(S(=O)(=O)O)c23)cc1NC(=O)c1cccc(NC(=O)Nc2cccc(C(=O)Nc3cc(C(=O)Nc4ccc(S(=O)(=O)O)c5cc(S(=O)(=O)O)cc(S(=O)(=O)O)c45)ccc3C)c2)c1", "note": "[suramin]", "values": [{"measurement": "oral bioavailability", "setting": "[1]", "value": "not orally bioavailable"}, {"measurement": "TIMP-2 mRNA levels", "setting": "TIMP-2 mRNA", "value": "no effect"}, {"measurement": "MMP-2 activity in vitro", "setting": "MMP-2", "value": "inhibit MMP-2 activity"}, {"measurement": "TIMP-1 mRNA levels", "setting": "TIMP-1 mRNA", "value": "no effect"}, {"measurement": "TIMP-3 binding to immobilized LRP1", "setting": "TIMP-3 binding to LRP1", "value": "abolished"}, {"measurement": "TIMP-3 mRNA levels", "setting": "TIMP-3 mRNA", "value": "not associated with any significant change"}, {"measurement": "cell viability (MTS)", "setting": "human OA chondrocytes", "value": "did not affect"}, {"measurement": "cell viability (MTS)", "setting": "human OA chondrocytes; listed as Suramin", "value": "without any significant change"}, {"measurement": "cartilage damage", "setting": "[2]", "value": "ameliorate cartilage damage"}]}
